Columns and labels:
tyrosine kinase activity = assay: Tyrosine kinase ELISA on extracts of β-APP-transfected DAMI cells mixed with PS-1-transfected DAMI cells; assay type: cell-based, human
Description: All experiments after those in FIG. 7 (with the exception of FIG. 9a, Panel 4) were carried out with appropriately transfected DAMI cells only. Equal numbers (0.5×10^6/ml) of β-APP-transfected DAMI cells and either PS-1- or PS-2-transfected DAMI cells were mixed gently at room temperature, exactly as described (Dewji and Singer, 1998). In control experiments, DAMI cells transfected with pcDNA3 alone were substituted for the β-APP transfected cells.
At several times between 0 and 20 min after mixing, an aliquot of each cell mixture was rapidly centrifuged, the culture medium was removed, and the cell pellet was suspended in 200 μl of extraction buffer (50 mM Tris, pH 8.0/150 mM NaCl/0.5% Nonidet-P40) containing protease inhibitors (1 mM 4-(2-aminoethyl) benzene sulfonyl fluoride hydrochloride (AEBSF)/1 μg/ml antipain/0.1 μg/ml pepstatin A/0.1 μg/ml leupeptin) and the phosphatase inhibitor sodium orthovanadate (0.1 mM). The mixture was sonicated with three bursts of 20 sec duration and then centrifuged. These extract supernatants were then used for Western blot and ELISA analyses as described below.
ELISAs Protein tyrosine kinase activity was measured by an Enzyme Linked Immunosorbent Assay (ELISA) using a tyrosine kinase assay kit (Upstate Biotechnology). […]

Aβ production = assay: ELISA of Aβ produced in β-APP-only:PS-1-only co-culture extracts; assay type: cell-based, mouse; conditions: β-APP:PS-1 co-culture, Peptide 1-80 0-3 μM
Description: Co-cultures of β-APP-only and PS-1-only cells were carried out in the presence and absence of Peptide 1-80 (0-3 μM). ^35S-GTPγS assays were carried out on extracts as a measure of G-protein activation. The Aβ produced in these co-culture extracts was determined by ELISA.
ES-derived mouse cells (PS-1^−/−; PS-2^−/−) that expressed only small amounts of endogenous β-APP but no PS, were transiently transfected with cDNA for human β-APP to produce cells expressing excess human β-APP over mouse β-APP, and no PS-1 or PS-2 (β-APP-only cells). Embryonic (E18) mouse primary fibroblasts derived from β-APP-null mice, expressing only small amounts of endogenous PS-1 and PS-2, were transfected with cDNAs for human PS-1 to produce cells expressing excess human over mouse PS-1 but no β-APP (PS-1-only cells). The minigenes were co-transfected with PS-1 in the PS-only APP−/− fibroblasts to inhibit the endogenous mouse Gα under investigation in those cells. PS−/− ES cells were separately transfected with human β-APP cDNA (β-APP only cells) and the two types of cells were co-cultured for 24 hours. Cells were harvested and detergent-buffer extracts of the co-cultures were prepared. Determination of [^35S]GTPγS incorporation in these cultures was carried out in the presence and absence of each minigene: Aliquots each containing 100 μg total protein were reacted with ^35S-GTPγS and immunoprecipitation of each ^35S-GTPγS-treated extract was carried out with antibodies directed to the particular Gα under investigation. Specificity of binding of a particular Gα to PS-1 was established by blocking of GTPγS incorporation in the presence of the specific minigene inhibitor.
Co-culture of β-APP-only with PS-1-only cells was carried out as described above.
ELISA for the production of Aβ1-40 was carried out using sandwich ELISA kits (Biosource).

Gαo = Gαo (Mus musculus, UniProt P18872); assay: 35S-GTPγS incorporation (G-protein activation) in β-APP-only:PS-1-only co-cultures, immunoprecipitation with Gαo antibody K-20; assay type: cell-based; conditions: β-APP:PS-1 co-culture, Peptide 1-80 0-3 μM
Description: Two cell types were generated: ES-derived mouse cells (PS-1^−/−; PS-2^−/−) that expressed only small amounts of endogenous β-APP but no PS, were transiently transfected with cDNA for human β-APP to produce cells expressing excess human β-APP over mouse β-APP, and no PS-1 or PS-2 (β-APP-only cells). Embryonic (E18) mouse primary fibroblasts derived from β-APP-null mice, expressing only small amounts of endogenous PS-1 and PS-2, were transfected with cDNAs for human PS-1 to produce cells expressing excess human over mouse PS-1 but no β-APP (PS-1-only cells). […]
Co-cultures of β-APP-only and PS-1-only cells were carried out in the presence and absence of Peptide 1-80 (0-3 μM). ^35S-GTPγS assays were carried out on extracts as a measure of G-protein activation. The Aβ produced in these co-culture extracts was determined by ELISA. […]
^35S-GTPγS Assays: Extract (100 μg of total protein) was mixed with an equal volume of GTPγS Buffer B (50 mM HEPES/NaOH pH 7.4, 40 μM GDP, 50 mM MgCl2, 100 mM NaCl) and reacted with 50 nM ^35S-GTPγS (1250 Ci/mmol, Perkin Elmer, Waltham, Mass.) for 60 min at RT. […] The agarose beads were suspended in scintillation fluid (CytoScint, ICN) (5 ml) and counted in a Beckman Coulter LS 6000 SC scintillation counter for 3 min.

Chain of Gαo (P18872 whole entry): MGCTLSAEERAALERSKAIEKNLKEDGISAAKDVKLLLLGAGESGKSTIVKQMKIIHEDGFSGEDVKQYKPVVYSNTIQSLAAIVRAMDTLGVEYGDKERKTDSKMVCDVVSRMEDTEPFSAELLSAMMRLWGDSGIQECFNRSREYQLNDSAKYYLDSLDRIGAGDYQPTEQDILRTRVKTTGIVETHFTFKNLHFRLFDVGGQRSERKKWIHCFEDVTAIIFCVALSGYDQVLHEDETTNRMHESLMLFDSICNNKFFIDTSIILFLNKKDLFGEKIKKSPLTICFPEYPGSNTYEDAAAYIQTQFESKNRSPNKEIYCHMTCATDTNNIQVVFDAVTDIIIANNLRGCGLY

## CC(C)(C)n1nc(-c2ccc(Cl)cc2)c2c(N)ncnc21 [PP2]
Tyrosine kinase activity; 10 nM PP2
  tyrosine kinase activity after mixing: inhibition

## CO[C@H]1[C@@H](OC)C[C@H](C)[C@@H](OC)C2=CC(=O)C=C(NC(=O)/C(C)=C/C=C\[C@H](OC)[C@@H](OC(N)=O)/C(C)=C/[C@@H]1C)C2=O [herbimycin A]
Tyrosine kinase activity; 10 μg/ml herbimycin A
  increase in tyrosine kinase activity at 8-10 mins after mixing: completely inhibited

## Peptide 1-80: fusion construct of the water-soluble entire 80 amino acid NH2-terminal domain of PS-1
Aβ production
  Aβ production by ELISA: inhibited by Peptide 1-80 in a dose-dependent manner
Gαo
  G-protein (Gαo) activation, 35S-GTPγS assay: inhibited by Peptide 1-80 in a dose-dependent manner

Reference: patent publication US10774121B2, “Methods and compositions for treating neurodegenerative disorders and Alzheimer's Disease and improving normal memory” (The Regents of the University of California, priority 2006, dated 2020)
